From patent publication EP3454861B1, “BENZOXAZINE OR QUINAZOLINE DERIVATIVES FOR USE IN THE TREATMENT OF ALZHEIMER'S DISEASE” (Biocodex, priority 2016, dated 2017)

Columns and labels:
neurones corticaux = experiment: Survival of cortical neurons after Aβ1-42 intoxication (MAP-2 immunostaining); type: cell-based, rats; details: 1 h pre-incubation, Aβ1-42 10 µM, 24 h
Method: Des neurones corticaux de rats sont mis en culture comme dans la méthode décrite par Singer (1999) J. Neurosci. 19:2455-2463. Des rats femelles enceintes de 15 jours sont tuées par dislocation des cervicales (Rats Wistar, Janvier) et le fœtus est retiré de l'utérus. Les cortex sont prélevés et placés dans un milieu glacé de Leibovitz (L15, Panbiotech, Réf : P04-27055, lot : 9310614) contenant 2% de pénicilline (10 000 U/ml) et de streptomycine (10 mg/ml) (PS, Panbiotec, Réf : P06-07100, lot : 48101114) et 1% de sérum-albumine bovine (BSA, Panbiotech, Réf : P06-1391100, lot : H140603). Les cortex sont dissociés par trypsination (0,05% Panbiotech, Réf : P10-023100, lot : 5890314) pendant 20 minutes à 37°C. La réaction est stoppée par addition d'un milieu Eagle modifié de Dulbecco (DMEM, Panbiotech, réf P04-03600, lot : 9670913) contenant de la DNase I grade Il (0,1 mg/ml Panbiotech, Réf : P60-37780100, lot : H140508) et 10 % de sérum de veau fœtal (FCS, Invitrogen, Réf : 10270 à 098, lot : 41Q4120K). Les cellules sont dissociées mécaniquement par 3 passages à travers une pipette de 10 ml. Les cellules sont ensuite centrifugées à 515 g pendant 10 minutes à 4°C. […]

[1] = test system: modèle murin de maladie d'Alzheimer par administration du peptide amyloïde β25-35; experiment: Passive avoidance test (long-term contextual memory), retention session, Aβ25-35 mouse model; type: in vivo, souris; details: Aβ25-35 9 nmol ICV, day 10
Description: Le 1^er jour : une version « mélangée » (scrambled) du peptide amyloïde β25-35 (Sc.Aβ, témoin négatif) ou le peptide amyloïde β25-35 (Aβ25-35) est injecté par voie intra-cérébroventriculaire (ICV) (le peptide Aβ25-35 provoque l'intoxication cellulaire). Entre le 1^er jour et le 10^ème jour, les traitements sont administrés une fois par jour par voie intrapéritonéale (IP).

Compound: CCNC1=Nc2ccc(Cl)cc2C(C)(c2ccccc2)O1 (centres unmarked) [Etifoxine, chlorhydratede 6-chloro-2-éthylamino-4-méthyl-4-phényl-4H-[3,1]benzoxazine]
- survie des neurones (neurones corticaux; étifoxine 3 µM, p <0,05): restaure de manière significative la survie des neurones
- survie des neurones (neurones corticaux; étifoxine 10 µM, p <0,01): restaure de manière significative la survie des neurones
- temps de fuite lors de la session de rétention, Moyenne ([1]; Etifoxine 25 mg/kg IP once daily): 22,4 ± 2,4%
- temps de fuite lors de la session de rétention, Moyenne ([1]; Etifoxine 50 mg/kg IP once daily): 21,6 ± 3,0%
- temps de latence lors la session de rétention, Moyenne ([1]; Etifoxine 12,5 mg/kg IP once daily): 208,1 ± 17,4%
